test system: HCV replicon; assay: HCV replicon assay in human hepatoma Huh-7 cell line (luciferase readout); format: cell-based; details: 2 μM; Huh-7 HCV replicon cells, 3 days incubation; inhibition of viral replication
Method: The anti-HCV activity of the compounds of this invention was tested in a human hepatoma Huh-7 cell line harboring a HCV replicon. The assay comprised the following steps:
Serial dilution was performed in 100% DMSO in a 384-well plate. A solution containing a compound at 225-fold concentration of the starting final serial dilution concentration was prepared in 100% DMSO and 15 uL added to the pre-specified wells in column 3 or 13 of a polypropylene 384-well plate. The rest of the 384-well plate was filled with 10 uL 100% DMSO except for columns 23 and 24, where 10 uL of 500 uM a HCV protease inhibitor (ITMN-191) in 100% DMSO was added. The HCV protease inhibitor was used a control of 100% inhibition of HCV replication. The plate was then placed on a Biomek FX Workstation to start the serial dilution. The serial dilution was performed for ten cycles of 3-fold dilution from column 3 to 12 or from column 13 to 22.
To each well of a black polypropylene 384-well plate, 90 μL of cell media containing 1600 suspended Huh-7 HCV replicon cells was added with a Biotek uFlow Workstation. A volume of 0.4 μL of the compound solution was transferred from the serial dilution plate to the cell culture plate on a Biomek FX Workstation. The DMSO concentration in the final assay condition was 0.44%. The plates were incubated for 3 days at 37° C. with 5% CO2 and 85% humidity.
a) Assessment of cytotoxicity: The media in the 384-well cell culture plate was aspirated with a Biotek EL405 plate-washer. A volume of 50 μL of a solution containing 400 nM Calcein AM in 100% PBS was added to each well of the plate with a Biotek uFlow Workstation. The plate was incubated for 30 minutes at room temperature before the fluorescence signal ([…]) was measured with a Perkin Elmer Envision Plate Reader.
b) Assessment of inhibition of viral replication: The calcein-PBS solution in the 384-well cell culture plate was aspirated with a Biotek EL405 plate-washer. A volume of 20 μL of Dual-Glo luciferase buffer (Promega, Dual-Glo Luciferase Assay Reagent, cat. #E298B) was added to each well of the plate with a Biotek uFlow Workstation. The plate was incubated for 10 minutes at room temperature. A volume of 20 μL of a solution containing 1:100 mixture of Dual-Glo Stop & Glo substrate (Promega, Dual-Glo Luciferase Assay Reagent, cat. #E313B) and Dual-Glo Stop & Glo buffer (Promega, Dual-Glo Luciferase Assay Reagent, cat #E314B) was then added to each well of the plate with a Biotek uFlow Workstation. The plate was incubated at room temperature for 10 minutes before the luminescence signal was measured with a Perkin Elmer Envision Plate Reader.
The percent cytotoxicity was determined by calcein AM conversion to fluorescent product. The average fluorescent signal from the DMSO control wells were defined as 100% nontoxic. The individual fluorescent signal from testing compound treated well was divided by the average signal from DMSO control wells and then multiplied by 100% to get the percent viability. The percent anti-HCV replication activity was determined by the luminescence signal from the testing well compared to DMSO controls wells. The background signal was determined by the average luminescence signal from the HCV protease inhibitor treated wells and was subtracted from the signal from the testing wells as well as the DMSO control wells. Following 3-fold serial dilutions, the EC50 and CC50 values were calculated by fitting % inhibition at each concentration to the following equation: % inhibition=100%/[(EC50/[I])^b+1]
Where b is Hill's coefficient. See, for reference, Hill, A. V., The Possible Effects of the Aggregation of the Molecules of Haemoglobin on its Dissociation Curves, J. Physiol. 40: iv-vii. (1910).
% inhibition values at a specific concentration, for example 2 μM, can also be derived from the formula above.

Structure (SMILES)	% inhibition at 2 μM
CC1=CCC(C(=O)N(c2cc(C#CC(C)(C)C)sc2C(=O)O)[C@H]2CC[C@](O)(CO[C@H]3CCOC3)CC2)[C@H](C)C1 (single isomer, unassigned) [Compound 5B, 5-(3,3-dimethyl-but-1-ynyl)-3-{(4,6R-dimethyl-cyclohex-3-enecarbonyl)-[4-hydroxy-4-(tetrahydro-furan-3-yloxymethyl)-cyclohexyl]-amino}-thiophene-2-carboxylic acid]	99.95%

same assay, conditions: Hepatitis C virus, Huh-7, 72 h, 2 μM; Huh-7 HCV replicon cells, 3 days incubation; inhibition of viral replication; read-out: % inhibition at 2 μM

Structure (SMILES)	inhibition at 2 µM
CC1=CCC(C(=O)N(c2cc(C#CC(C)(C)C)sc2C(=O)O)[C@H]2CC[C@](O)(CO[C@H]3CCOC3)CC2)[C@H](C)C1 (single isomer, unassigned) [Compound 5A, 5-(3,3-dimethyl-but-1-ynyl)-3-{(4,6R-dimethyl-cyclohex-3-enecarbonyl)-[4-hydroxy-4-(tetrahydro-furan-3-yloxymethyl)-cyclohexyl]-amino}-thiophene-2-carboxylic acid]	100%
CC(C)(C)C#Cc1cc(N(C(=O)[C@H]2CC[C@H](C)CC2)C2CCC(O)(COc3cccnc3)CC2)c(C(=O)O)s1 (stereo partly shown) [Compound 1, 5-(3,3-Dimethylbut-1-ynyl)-3-(N-(4-hydroxy-4-((pyridin-3-yloxy)methyl)cyclohexyl)-4-methylcyclohexanecarboxamido)thiophene-2-carboxylic acid]	99.9%
CC(C)(C)C#Cc1cc(N(C(=O)[C@H]2CC[C@H](C)CC2)[C@H]2CC[C@](O)(CO[C@@H]3CCOC3)CC2)c(C(=O)O)s1 [Compound 2, 5-(3,3-Dimethyl-but-1-ynyl)-3-[[4-hydroxy-4-(tetrahydrofuran-3R-yloxymethyl)-cyclohexyl]-(4-methyl-cyclohexanecarbonyl)-amino]-thiophene-2-carboxylic acid]	100%
CC(C)(C)C#Cc1cc(N(C(=O)[C@H]2CC[C@H](C)CC2)[C@H]2CC[C@](O)(CO[C@H]3CCOC3)CC2)c(C(=O)O)s1 [Compound 3, 5-(3,3-Dimethyl-but-1-ynyl)-3-[[4-hydroxy-4-(tetrahydrofuran-3S-yloxymethyl)-cyclohexyl]-(4-methyl-cyclohexanecarbonyl)-amino]-thiophene-2-carboxylic acid]	100%
CC(C)(C)C#Cc1cc(N(C(=O)[C@H]2CC[C@H](C)CC2)[C@H]2CC[C@@](O)(CO[C@H]3CCOC3)CC2)c(C(=O)O)s1 [Compound 4]	99.6%
CC1=CCC(C(=O)N(c2cc(C#CC(C)(C)C)sc2C(=O)O)[C@H]2CC[C@](O)(CO[C@H]3CCOC3)CC2)[C@@H](C)C1 (stereo partly drawn) [Compound 6, 5-(3,3-dimethyl-but-1-ynyl)-3-{(4,6S-dimethyl-cyclohex-3-enecarbonyl)-[4-hydroxy-4-(tetrahydro-furan-3(S)-yloxymethyl)-cyclohexyl]-amino}-thiophene-2-carboxylic acid]	99.9%
CC1=CC[C@@H](C(=O)N(c2cc(C#CC(C)(C)C)sc2C(=O)O)[C@H]2CC[C@](O)(CO[C@@H]3CCOC3)CC2)CC1 [Compound 7]	100%
CC1=CC[C@@H](C(=O)N(c2cc(C#CC(C)(C)C)sc2C(=O)O)[C@H]2CC[C@](O)(CO[C@H]3CCOC3)CC2)CC1 [Compound 8]	99.9%
CC1=CC[C@H](C(=O)N(c2cc(C#CC(C)(C)C)sc2C(=O)O)[C@H]2CC[C@](O)(CO[C@H]3CCOC3)CC2)CC1 [Compound 9]	100%
CC1=CC[C@H](C(=O)N(c2cc(C#CC(C)(C)C)sc2C(=O)O)[C@H]2CC[C@](O)(CO[C@@H]3CCOC3)CC2)CC1 [Compound 10]	100%
COC(=O)c1sc(C#CC(C)(C)C)cc1N(C(=O)[C@H]1CC=C(C)C[C@@H]1C)[C@H]1CC[C@](O)(CO[C@H]2CCOC2)CC1 [Compound 17]	78.8%
CC1=CC[C@H](C(=O)N(c2cc(C#CC(C)(C)C)sc2C(=O)O)[C@H]2CC[C@](O)(CO[C@@H]3CCOC3)CC2)[C@@H](C)C1 [Compound 18]	100%
[2H]C([2H])([2H])C(C#Cc1cc(N(C(=O)[C@H]2CC=C(C)CC2)C2CCC(O)(CO[C@H]3CCOC3)CC2)c(C(=O)O)s1)(C([2H])([2H])[2H])C([2H])([2H])[2H] (stereo partly shown) [Compound 24]	100%
CC1=CC[C@H](C(=O)N(c2cc(C#CC(C)(C)CO)sc2C(=O)O)[C@H]2CC[C@](O)(CO[C@H]3CCOC3)CC2)CC1 [Compound 29, 5-(4-hydroxy-3,3-dimethylbut-1-ynyl)-3-((R)-N-((1R,4S)-4-hydroxy-4-(((S)-tetrahydrofuran-3-yloxy)methyl)cyclohexyl)-4-methylcyclohex-3-enecarboxamido)thiophene-2-carboxylic acid]	100%

same assay, conditions: Hepatitis C virus, Huh-7, 72 h, read-out: % inhibition at 2 μM

Structure (SMILES)	inhibition at 2 µM
CC1=CC[C@H](C(=O)N(c2cc(C#CC(C)(C)C)sc2C(=O)O)[C@H]2CC[C@](O)(CO[C@H]3CCOC3)CC2)[C@@H](C)C1 [Compound 16]	100%
